Source: patent US20190376142A1, “METHOD TO DISTINGUISH TUMOR SUPRESSIVE FOXO ACTIVITY FROM OXIDATIVE STRESS” (KONINKLIJKE PHILIPS N.V., priority 2016, published 2019)

What was measured:
[1] = tested on: FOXO3 activity in EGFR-mutant HCC827 lung cancer cell line; assay: Computational FOXO model on drug-treated HCC827 cells (GSE51212); details: HCC827 treated with drug vs untreated (FOXO scored inactive); public dataset GSE51212
Method: (§1) Public datasets from samples that were treated with drugs targeting growth factor pathways. A. GEO GSE51212. […] B. GEO GSE30516 dataset.
(§2) Once the model has been calibrated, it could be used on microarray (Affymetrix HG-U133Plus2.0) data of new tumor samples by entering probeset measurements as observations in the bottom layer, and inferring backwards in the model the activity probability of the FOXO3 transcription factor. The model was frozen and applied to microarray data of cell line and tissue samples by entering probeset measurements as observations into the model, inferring backwards FOXO transcription factor activity score as the log-2 value of the FOXO transcription factor odds p/(1−p).
(§3) Parameters enforcing relationships between the FOXO transcription complex and target genes were manually set to improve generalization behavior of the model across different tissue types (11). Parameters describing relationships between target genes and their respective probe sets were calibrated on a public data set of Human Umbilical Vein Endothelial Cells (HUVEC) carrying inducible constitutively active FOXO3.A3-ER, and a threshold for FOXO-activity was set (GSE16573) (20).

[2] = tested on: FOXO activity in Human Umbilical Vein Endothelial Cells (HUVEC); assay: Computational FOXO model on HUVEC with 4OHT-inducible FOXO3.A3-ER (GSE16573); assay type: cell-based
Excerpt: A. The Bayesian network structure used as a basis for the modeling approach shown as a simplified model of the transcriptional program of a cellular signal transduction pathway, consisting of three types of nodes: transcription factor, target gene and microarray probe sets corresponding to target genes. B. Training of the computational FOXO3 model on a public GEO dataset GSE16573, consisting of Affymetrix microarray 2.0 Plus expression data from HUVEC containing a 4OHT-inducible FOXO3.A3-ER expression construct. Each bar represents a sample analysis result.
The probabilistic relations in the Bayesian network model were made quantitative using experimental data to enable quantitative reasoning on new experimental samples.

[3] = tested on: FOXO activity in BT20 (triple-negative breast cancer cell line); assay: Computational FOXO model on Erlotinib-treated BT20 cells (GSE30516); details: BT20 treated with Erlotinib; public dataset GSE30516
Method: as §1, §2, §3

[4] = tested on: FOXO activity in MCF7 (ER positive breast cancer cell line); assay: Computational FOXO model on Erlotinib-treated MCF7 cells (GSE30516); details: MCF7 treated with Erlotinib; public dataset GSE30516
Method: as §1, §2, §3

[5] = tested on: FOXO activity in MDA-MB-453 (HER2 positive breast cancer cell line); assay: Computational FOXO model on Erlotinib-treated MDA-MB-453 cells (GSE30516); details: MDA-MB-453 treated with Erlotinib; public dataset GSE30516
Method: as §1, §2, §3

SMILES: Cn1c(=O)n(-c2ccc(C(C)(C)C#N)cc2)c2c3cc(-c4cnc5ccccc5c4)ccc3ncc21 [BEZ235]
- FOXO3 activity scored by the FOXO model [1]: scored active

SMILES: CC/C(=C(\c1ccc(O)cc1)c1ccc(OCCN(C)C)cc1)c1ccccc1 [4OHT]
- FOXO activity predicted by the Bayesian model ([2]; HUVEC-FOXO3.A3-ER treated with 4OHT): highly active FOXO
- FOXO activity predicted by the Bayesian model ([2]; HUVECs expressing FOXO3.A3-ER-H212R (reduced DNA binding) treated with 4OHT): low FOXO3 activity
- FOXO activity predicted by the Bayesian model ([2]; HUVECs without construct, treated with 4OHT): low FOXO activity

SMILES: C#Cc1cccc(Nc2ncnc3cc(OCCOC)c(OCCOC)cc23)c1 [Erlotinib]
- FOXO activity score [3]: increased
- FOXO activity score [4]: increased
- FOXO activity score [5]: increased
